From patent US20230310413A1, “PHARMACEUTICAL FORMULATIONS COMPRISING A MALT1 INHIBITOR AND A MIXTURE OF POLYETHYLENE GLYCOL WITH A FATTY ACID” (JANSSEN PHARMACEUTICA NV, priority 2020, published 2023)
Where two headings read alike, the source gives them in different places.

Assay: Pharmacokinetics of Compound A after single oral administration at 200 mg in fasted and fed dogs
Format: in vivo, male beagle dogs
Settings: 200 mg oral dose; for AUC(0-t) / Tmax / half-life / Cmax: male, po, 200 mg; for Tmax: median; for half-life: N = 2, poor linear regression; for Cmax: Gelucire 50/13 size 00 hard gelatin capsule, N=3
Method: Example 8: Pharmacokinetics of Compound a after Single Oral Administration at 200 Mg in Fasted and Fed Dogs
A pharmacokinetic (PK) study was carried out using a Compound A stearoyl polyoxy-32 glycerides formulation.
A formulation of compound A and stearoyl polyoxy-32 glycerides (Gelucire® 50/13) in size 00 hard gelatin capsules (200 mg dose per capsule), according to Table 3, was administered orally to male beagle dogs (N=3) in a fasted state as well as a fed state.

[1] = beagle, dog, plasma, fasted male dogs, Gelucire 50/13 hard gelatin capsule
[2] = beagle, dog, plasma, fed male dogs, Gelucire 50/13 hard gelatin capsule

Q: For `O=C(Nc1ccnc(C(F)(F)F)c1)c1cnn(-c2cccc3c(=O)[nH]ccc23)c1C(F)(F)F` [Compound A, 1-(1-oxo-1,2-dihydroisoquinolin-5-yl)-5-(trifluoromethyl)-N-(2-(trifluoromethyl)pyridin-4-yl)-1H-pyrazole-4-carboxamide], which AUC(0-inf) (beagle, dog, plasma, fasted male dogs, Gelucire 50/13 hard gelatin capsule, mean) is on record?
A: The AUC(0-inf) was 578 µg·h/mL.

Q: And the “Fed vs Fasted” value (fed male dogs, fasted group as reference)?
A: Its value is 1.3.

Q: What about the AUC(0-t) (beagle, dog, plasma, fasted male dogs, Gelucire 50/13 hard gelatin capsule, mean, read-out: AUC0-24 h) of the same compound?
A: Its AUC(0-t) is 246 µg·h/mL.

Q: What about the AUC(0-t) (beagle, dog, plasma, fasted male dogs, Gelucire 50/13 hard gelatin capsule, mean, read-out: AUC0-96 h) of the same compound?
A: The AUC(0-t) was 521 µg·h/mL.

Q: And the Tmax [1]?
A: Its Tmax is 2 h.

Q: What about the half-life [1] of the same compound?
A: Its half-life is 30 h.

Q: And the Cmax (beagle, dog, plasma, fasted male dogs, mean)?
A: The Cmax was 16000 ng/mL.

Q: And the AUC(0-t) (beagle, dog, plasma, fed male dogs, Gelucire 50/13 hard gelatin capsule, mean, read-out: AUC0-24 h)?
A: The AUC(0-t) was 121 µg·h/mL.

Q: And the AUC(0-t) (beagle, dog, plasma, fed male dogs, Gelucire 50/13 hard gelatin capsule, mean, read-out: AUC0-96 h)?
A: The AUC(0-t) was 502 µg·h/mL.

Q: And the Tmax [2]?
A: The Tmax was 24 h.

Q: What about the half-life [2] of the same compound?
A: Its half-life is 34 h.

Q: What about the Cmax (beagle, dog, plasma, fed male dogs, mean) of the same compound?
A: The Cmax was 9330 ng/mL.
